Data: patent US20240262803A1, “COMPOUNDS, COMPOSITIONS AND METHODS OF TREATING DISORDERS” (Chungdu Anticancer Bioscience Ltd, priority 2021, published 2024)
Read-outs that look alike come from different tables or passages of the source.

What was measured:
Format in all cases: cell-based
[1] = test system: breast cancer cell line MDA-MB-231; experiment: Minimal effective concentration that elicits polyploidy, MDA-MB-231; conditions: Homo sapiens, read-out: MECP: Minimal effective concentration that elicits polyploidy
[2] = test system: gastric cancer cell line NCI-N87; experiment: Minimal effective concentration that elicits polyploidy, NCI-N87; conditions: Homo sapiens, read-out: MECP: Minimal effective concentration that elicits polyploidy
[3] = test system: lung cancer cell line NCI-H23; experiment: MTT assay of cellular proliferation, NCI-H23; conditions: Homo sapiens, read-out: EC50: Concentration that inhibits 50% of proliferation
Protocol: (§1) Six lung cancer cell lines (NCI-H23, NCI-H460, NCI-H596, NCI-H2170, Calu-6 and A549), two colon cancer cell lines (HCT116 and SW460), one breast cancer cell line MDA-MB-231, one gastric cancer cell line NCI-N87, one prostate cancer cell line DU145, one cervical cancer cell line Hela, and one glioblastoma cell line T98G were obtained from ATCC. The T2 HCC cell line was derived from a mouse liver cancer model initiated by a transgene of MYC (Reference). All cell lines were cultured in DMEM (Gibco, Cleveland, TN, USA) supplemented with 5% fetal bovine serum (Gibco), penicillin (100 U/mL)-streptomycin (100 μg/mL) (Gibco, Cat. No. 15140-122), 2 mM L-glutamine (Gibco, 200 mM solution, Cat. No. 25030081), and 1 mM sodium pyruvate (Gibco, 100 mM solution, Cat. No. 11360070) at 37° C. in a humidified incubator that was maintained at 5% CO2.
(§2) The MTT assay measures cellular metabolic activity as a proxy for cell viability and involves the conversion of the water-soluble yellow dye MTT [3-(4,5-dimethylthiazol-2-yl)-2,5-diphenyltetrazolium bromide] into an insoluble purple formazan by the action of mitochondrial reductase. Formazan is then solubilized and its concentration is determined by measuring the optical density (OD) value at a wavelength of 570 nm. The value is in proportional to the number of live cells with excellent linearity up to ˜10^6 cells per well. The MTT assay was used to determine the EC50 value, the concentration of a compound that leads to 50% inhibition of cellular proliferation. Briefly, cells were split when growing to the mid-Log phase. Cells in 100 μL of culture medium were seeded into each well of 96-well microplates and cultivated for 15˜24 hours to reach a confluence of 20˜30% and were then exposed to drugs at concentrations ranging from 1 nM to 10 μM. At the endpoint, 20 μL of a MTT stock solution in DMSO (5 mg/mL) was added to each well that contains […] of DMEM. The microplates were left in the cell culture incubator for 3˜4 h before subjected to solubilization and determination of formazan at A570 in a microplate reader (BioTek ELX808iu). […] Therefore, these compounds might hold a broad utility in the treatment of a large variety of human malignancies.

[4] = test system: cervical cancer cell line Hela; experiment: Minimal effective concentration that elicits polyploidy, Hela; conditions: Homo sapiens, read-out: MECP: Minimal effective concentration that elicits polyploidy
[5] = test system: liver cancer cell line T2 HCC; experiment: MTT assay of cellular proliferation, T2 HCC; conditions: Mus musculus, read-out: EC50: Concentration that inhibits 50% of proliferation
Protocol: as §1, §2

[6] = test system: colon cancer cell line SW460; experiment: MTT assay of cellular proliferation, SW460; conditions: Homo sapiens, SW480; read-out: EC50: Concentration that inhibits 50% of proliferation
Protocol: as §1, §2

RPEMYC^H2B-GFP cells [7] = experiment: Mechanism-informed phenotypic screening assay (mitotic arrest, polyploidy; GE IN-Cell Analyzer 2000); conditions: 20 nM to 20 μM, 24, 48 or 72 hours, read-out: Min. Effective conc. for polyploidy (≥5%)
Summary of the method: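 Cells expressing Histone 2B-EGFP (RPEMYC^H2B-GFP) were plated 18-24 h before exposure to compounds at 20 nM to 20 μM. At 24, 48 or 72 h, imaging scored mitotic arrest or change in DNA content. Value is the lowest concentration giving polyploid accumulation at 48 h.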

[8] = test system: colon cancer cell line HCT116; experiment: MTT assay of cellular proliferation, HCT116; conditions: Homo sapiens, HCT-116, read-out: EC50: Concentration that inhibits 50% of proliferation
Protocol: as §1, §2

[9] = test system: liver cancer cell line T2 HCC; experiment: Minimal effective concentration that elicits polyploidy, T2 HCC; conditions: Mus musculus, read-out: MECP: Minimal effective concentration that elicits polyploidy
[10] = test system: cervical cancer cell line Hela; experiment: MTT assay of cellular proliferation, Hela; conditions: Homo sapiens, read-out: EC50: Concentration that inhibits 50% of proliferation
Protocol: as §1, §2

[11] = test system: colon cancer cell line HCT116; experiment: Minimal effective concentration that elicits polyploidy, HCT116; conditions: Homo sapiens, HCT-116, read-out: MECP: Minimal effective concentration that elicits polyploidy
RPEMYC^H2B-GFP cells [12] = experiment: Mechanism-informed phenotypic screening assay (mitotic arrest, polyploidy; GE IN-Cell Analyzer 2000); conditions: 20 nM to 20 μM, 24, 48 or 72 hours, read-out: Mitotic Arrest (≥5%)
SW480 = experiment: Minimal effective concentration that elicits polyploidy, SW480; conditions: Homo sapiens, read-out: MECP: Minimal effective concentration that elicits polyploidy
[13] = test system: breast cancer cell line MDA-MB-231; experiment: MTT assay of cellular proliferation, MDA-MB-231; conditions: Homo sapiens, read-out: EC50: Concentration that inhibits 50% of proliferation
Protocol: as §1, §2

[14] = test system: lung cancer cell line A549; experiment: MTT assay of cellular proliferation, A549; conditions: Homo sapiens, read-out: EC50: Concentration that inhibits 50% of proliferation
Protocol: as §1, §2

[15] = test system: gastric cancer cell line NCI-N87; experiment: MTT assay of cellular proliferation, NCI-N87; conditions: Homo sapiens, read-out: EC50: Concentration that inhibits 50% of proliferation
Protocol: as §1, §2

[16] = test system: lung cancer cell line NCI-H23; experiment: Minimal effective concentration that elicits polyploidy, NCI-H23; conditions: Homo sapiens, read-out: MECP: Minimal effective concentration that elicits polyploidy
[17] = test system: lung cancer cell line A549; experiment: Minimal effective concentration that elicits polyploidy, A549; conditions: Homo sapiens, read-out: MECP: Minimal effective concentration that elicits polyploidy

| SMILES | minimal effective concentration [1] | minimal effective concentration [2] | EC50 [3] | minimal effective concentration [4] | EC50 [5] | EC50 [6] | minimal effective concentration (RPEMYC^H2B-GFP cells [7]) | EC50 [8] | minimal effective concentration [9] | EC50 [10] | minimal effective concentration [11] | minimal effective concentration (RPEMYC^H2B-GFP cells [12]) | minimal effective concentration (SW480) | EC50 [13] | EC50 [14] | EC50 [15] | minimal effective concentration [16] | minimal effective concentration [17] |
| --- | --- | --- | --- | --- | --- | --- | --- | --- | --- | --- | --- | --- | --- | --- | --- | --- | --- | --- |
| COc1cc(Oc2ncccc2-c2ccnc(OC)c2)cc(-n2cccn2)c1 [Compound 31, 2′-methoxy-2-(3-methoxy-5-(1H-pyrazol-1-yl)phenoxy)-3,4′-bipyridine] | 0.001 to 1 µM | 0.001 to 1 µM | 1 to 1000 nM | 0.001 to 1 µM | 1 to 1000 nM | 1 to 1000 nM | 1 µM | 1 to 1000 nM | 0.001 to 1 µM | 1 to 1000 nM | 0.001 to 1 µM | 1 µM | 0.001 to 1 µM | 1 to 1000 nM | 1 to 1000 nM | 1 to 1000 nM | 0.001 to 1 µM | 0.001 to 1 µM |
| COc1cc(NC(C)=O)cc(Oc2ncccc2-c2ccnc(OC)c2)c1 [Compound 34] | 0.001 to 1 µM | 0.001 to 1 µM | 1 to 1000 nM | 0.001 to 1 µM | 1 to 1000 nM | 1 to 1000 nM | 1 µM | 1 to 1000 nM | 0.001 to 1 µM | 1 to 1000 nM | 0.001 to 1 µM | 1 µM | 0.001 to 1 µM | 1 to 1000 nM | 1 to 1000 nM | 1 to 1000 nM | 0.001 to 1 µM | 0.001 to 1 µM |
| COc1cc(OC)cc(Oc2nccnc2-c2ccnc(OC)c2)c1 [Compound 35, 2-(3,5-dimethoxyphenoxy)-3-(2-methoxypyridin-4-yl)pyrazine] | 0.001 to 1 µM | 0.001 to 1 µM | 1 to 1000 nM | 0.001 to 1 µM | 1 to 1000 nM | 1 to 1000 nM | 1 µM | 1 to 1000 nM | 0.001 to 1 µM | 1 to 1000 nM | 0.001 to 1 µM | 1 µM | 0.001 to 1 µM | 1 to 1000 nM | 1 to 1000 nM | 1 to 1000 nM | 0.001 to 1 µM | 0.001 to 1 µM |
| CNC(=O)c1cc(OC)cc(Oc2ncccc2-c2ccnc(C)c2)c1 [Compound 36, 3-methoxy-N-methyl-5-((2′-methyl-[3,4′-bipyridin]-2-yl)oxy)benzamide] | 0.001 to 1 µM | 0.001 to 1 µM | 1 to 1000 nM | 0.001 to 1 µM | 1 to 1000 nM | 1 to 1000 nM | 1 µM | 1 to 1000 nM | 0.001 to 1 µM | 1 to 1000 nM | 0.001 to 1 µM | 1 µM | 0.001 to 1 µM | 1 to 1000 nM | 1 to 1000 nM | 1 to 1000 nM | 0.001 to 1 µM | 0.001 to 1 µM |
| CNC(=O)c1cc(Oc2ncccc2-c2ccnc(C)c2)cc(C(F)(F)F)c1 [Compound 37, N-methyl-3-((2′-methyl-[3,4′-bipyridin]-2-yl)oxy)-5-(trifluoromethyl)benzamide] | 0.001 to 1 µM | 0.001 to 1 µM | 1 to 1000 nM | 0.001 to 1 µM | 1 to 1000 nM | 1 to 1000 nM | 1 µM | 1 to 1000 nM | 0.001 to 1 µM | 1 to 1000 nM | 0.001 to 1 µM | 1 µM | 0.001 to 1 µM | 1 to 1000 nM | 1 to 1000 nM | 1 to 1000 nM | 0.001 to 1 µM | 0.001 to 1 µM |
| CCOc1cc(Oc2ncccc2-c2ccnc(C)c2)cc(C(=O)NC)c1 [Compound 38, 3-ethoxy-N-methyl-5-((2′-methyl-[3,4′-bipyridin]-2-yl)oxy)benzamide] | 0.001 to 1 µM | 0.001 to 1 µM | 1 to 1000 nM | 0.001 to 1 µM | 1 to 1000 nM | 1 to 1000 nM | 1 µM | 1 to 1000 nM | 0.001 to 1 µM | 1 to 1000 nM | 0.001 to 1 µM | 1 µM | 0.001 to 1 µM | 1 to 1000 nM | 1 to 1000 nM | 1 to 1000 nM | 0.001 to 1 µM | 0.001 to 1 µM |
| CNC(=O)c1cc(Oc2ncccc2-c2ccnc(C)c2)cc(OC(F)(F)F)c1 [Compound 39, N-methyl-3-((2′-methyl-[3,4′-bipyridin]-2-yl)oxy)-5-(trifluoromethoxy)benzamide] | 0.001 to 1 µM | 0.001 to 1 µM | 1 to 1000 nM | 0.001 to 1 µM | 1 to 1000 nM | 1 to 1000 nM | 1 µM | 1 to 1000 nM | 0.001 to 1 µM | 1 to 1000 nM | 0.001 to 1 µM | 1 µM | 0.001 to 1 µM | 1 to 1000 nM | 1 to 1000 nM | 1 to 1000 nM | 0.001 to 1 µM | 0.001 to 1 µM |
| COc1cc(Oc2ncccc2-c2ccnc(C)c2)cc(C(F)(F)F)c1 [Compound 40, 2-(3-methoxy-5-(trifluoromethyl)phenoxy)-2′-methyl-3,4′-bipyridine] | 0.001 to 1 µM | 0.001 to 1 µM | 1 to 1000 nM | 0.001 to 1 µM | 1 to 1000 nM | 1 to 1000 nM | 1 µM | 1 to 1000 nM | 0.001 to 1 µM | 1 to 1000 nM | 0.001 to 1 µM | 1 µM | 0.001 to 1 µM | 1 to 1000 nM | 1 to 1000 nM | 1 to 1000 nM | 0.001 to 1 µM | 0.001 to 1 µM |
| COc1cc(Oc2ncccc2-c2ccnc(C)c2)cc(-n2cccn2)c1 [Compound 41, 2-(3-methoxy-5-(1H-pyrazol-1-yl)phenoxy)-2′-methyl-3,4′-bipyridine] | 0.001 to 1 µM | 0.001 to 1 µM | 1 to 1000 nM | 0.001 to 1 µM | 1 to 1000 nM | 1 to 1000 nM | 1 µM | 1 to 1000 nM | 0.001 to 1 µM | 1 to 1000 nM | 0.001 to 1 µM | 1 µM | 0.001 to 1 µM | 1 to 1000 nM | 1 to 1000 nM | 1 to 1000 nM | 0.001 to 1 µM | 0.001 to 1 µM |
